# Legend:
# Test in all cases: Test C greenhouse herbicide test, pre- and postemergence
# Assay type in all cases: in vivo
# [1] = tested on: galium (catchweed bedstraw, Galium aparine)
# Method in brief: (§1)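 Seeds sown in loam–sand blend treated preemergence; plants in peat-based medium sprayed postemergence at 2–18 cm (1- to 4-leaf stage); chemicals in non-phytotoxic solvent with surfactant. Greenhouse 13–15 d, then visual rating versus controls on 0–100 scale (0 no effect, 100 complete control).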
# [2] = tested on: blackgrass (Alopecurus myosuroides)
# Method in brief: as §1
# [3] = tested on: lambsquarters (Chenopodium album)
# Method in brief: as §1
# [4] = tested on: pigweed (Amaranthus retroflexus)
# Method in brief: as §1
# corn (Zea mays) = tested on: corn (Zea mays)
# Method in brief: as §1
# [5] = tested on: nutsedge, yellow (yellow nutsedge, Cyperus esculentus)
# Method in brief: as §1
# [6] = tested on: ragweed (common ragweed, Ambrosia elatior)
# Method in brief: as §1
# [7] = tested on: oilseed rape (Brassica napus)
# Method in brief: as §1
# [8] = tested on: wheat (winter wheat, Triticum aestivum)
# Method in brief: as §1
# [9] = tested on: velvetleaf (Abutilon theophrasti)
# Method in brief: as §1
# [10] = tested on: barnyardgrass (Echinochloa crus-galli)
# Method in brief: as §1
# [11] = tested on: foxtail, giant (giant foxtail, Setaria faberii)
# Method in brief: as §1
# [12] = tested on: ryegrass, Italian (Italian ryegrass, Lolium multiflorum)
# Method in brief: as §1
# soybean (Glycine max) = tested on: soybean (Glycine max)
# Method in brief: as §1
# [13] = tested on: crabgrass, large (large crabgrass, Digitaria sanguinalis)
# Method in brief: as §1
# [14] = Postemergence, 31 g ai/ha, scale 0 to 100 (0 no effect, 100 complete control)
# [15] = Postemergence, 125 g ai/ha, scale 0 to 100, 0 is no effect, 100 is complete control
# [16] = Postemergence, 250 g ai/ha, scale 0 to 100, 0 no effect, 100 complete control, 13 to 15 d
# [17] = Preemergence, 31 g ai/ha, scale 0 to 100, 0 is no effect, 100 is complete control
# [18] = Preemergence, 62 g ai/ha, scale 0 to 100, 0 is no effect, 100 is complete control
# [19] = Preemergence, 125 g ai/ha, scale 0 to 100, 0 is no effect, 100 is complete control
# [20] = Preemergence, 250 g ai/ha, scale 0 to 100, 0 no effect, 100 complete control
# [21] = postemergence, 62 g ai/ha, scale 0 to 100, 0 no effect, 100 complete control
smiles,measurement,setting,value
CCCC(=O)Oc1c(C)nn(C)c(=O)c1-c1c(CC)sc2ccc(C)cc12 [Compound 107],"Plant response rating, Galium",[1]; [14],95
same,"Plant response rating, Galium",[1]; [15],100
same,"Plant response rating, Galium",[1]; [16],98
same,"Plant response rating, Galium",[1]; [17],90
same,"Plant response rating, Galium",[1]; [18],90
same,"Plant response rating, Galium",[1]; [19],90
same,Galium plant response rating,[1]; [20],95
same,"Plant response rating, Blackgrass",[2]; [14],0
same,"Plant response rating, Blackgrass",[2]; [15],5
same,"Plant response rating, Blackgrass",[2]; [16],30
same,"Plant response rating, Blackgrass",[2]; [17],0
same,"Plant response rating, Blackgrass",[2]; [18],5
same,"Plant response rating, Blackgrass",[2]; [19],10
same,Blackgrass plant response rating,[2]; [20],10
same,Blackgrass plant response rating,[2]; [21],5
same,"Plant response rating, Lambsquarters",[3]; [14],85
same,"Plant response rating, Lambsquarters",[3]; [15],90
same,"Plant response rating, Lambsquarters",[3]; [16],98
same,"Plant response rating, Lambsquarters",[3]; [17],90
same,"Plant response rating, Lambsquarters",[3]; [18],100
same,"Plant response rating, Lambsquarters",[3]; [19],95
same,Lambsquarters plant response rating,[3]; [20],95
same,"Plant response rating, Pigweed",[4]; [14],85
same,"Plant response rating, Pigweed",[4]; [15],98
same,"Plant response rating, Pigweed",[4]; [16],98
same,"Plant response rating, Pigweed",[4]; [17],100
same,"Plant response rating, Pigweed",[4]; [18],100
same,"Plant response rating, Pigweed",[4]; [19],100
same,Pigweed plant response rating,[4]; [20],100
same,"Plant response rating, Corn",corn (Zea mays); [14],5
same,"Plant response rating, Corn",corn (Zea mays); [15],20
same,"Plant response rating, Corn",corn (Zea mays); [16],15
same,"Plant response rating, Corn",corn (Zea mays); [17],0
same,"Plant response rating, Corn",corn (Zea mays); [18],0
same,"Plant response rating, Corn",corn (Zea mays); [19],10
same,Corn plant response rating,corn (Zea mays); [20],15
same,Corn plant response rating,corn (Zea mays); [21],10
same,"Plant response rating, Nutsedge, Yellow",[5]; [14],80
same,"Plant response rating, Nutsedge, Yellow",[5]; [15],75
same,"Plant response rating, Nutsedge, Yellow",[5]; [16],85
same,"Plant response rating, Nutsedge, Yellow",[5]; [17],30
same,"Plant response rating, Nutsedge, Yellow",[5]; [18],50
same,"Plant response rating, Nutsedge, Yellow",[5]; [19],70
same,"Nutsedge, Yellow plant response rating",[5]; [20],90
same,"Plant response rating, Ragweed",[6]; [14],85
same,"Plant response rating, Ragweed",[6]; [15],98
same,"Plant response rating, Ragweed",[6]; [16],98
same,"Plant response rating, Ragweed",[6]; [17],75
same,"Plant response rating, Ragweed",[6]; [18],90
same,"Plant response rating, Ragweed",[6]; [19],85
same,Ragweed plant response rating,[6]; [20],100
same,"Plant response rating, Oilseed Rape",[7]; [14],25
same,"Plant response rating, Oilseed Rape",[7]; [15],80
same,"Plant response rating, Oilseed Rape",[7]; [16],45
same,"Plant response rating, Oilseed Rape",[7]; [17],0
same,"Plant response rating, Oilseed Rape",[7]; [18],0
same,"Plant response rating, Oilseed Rape",[7]; [19],20
same,Oilseed Rape plant response rating,[7]; [20],80
same,"Plant response rating, Wheat",[8]; [14],0
same,"Plant response rating, Wheat",[8]; [15],0
same,"Plant response rating, Wheat",[8]; [16],0
same,"Plant response rating, Wheat",[8]; [17],0
same,"Plant response rating, Wheat",[8]; [18],0
same,"Plant response rating, Wheat",[8]; [19],0
same,Wheat plant response rating,[8]; [20],5
same,"Plant response rating, Velvetleaf",[9]; [14],75
same,"Plant response rating, Velvetleaf",[9]; [15],95
same,"Plant response rating, Velvetleaf",[9]; [16],100
same,"Plant response rating, Velvetleaf",[9]; [17],30
same,"Plant response rating, Velvetleaf",[9]; [18],60
same,"Plant response rating, Velvetleaf",[9]; [19],85
same,Velvetleaf plant response rating,[9]; [20],90
same,"Plant response rating, Barnyardgrass",[10]; [14],35
same,"Plant response rating, Barnyardgrass",[10]; [15],40
same,"Plant response rating, Barnyardgrass",[10]; [16],90
same,"Plant response rating, Barnyardgrass",[10]; [17],15
same,"Plant response rating, Barnyardgrass",[10]; [18],45
same,"Plant response rating, Barnyardgrass",[10]; [19],80
same,Barnyardgrass plant response rating,[10]; [20],98
same,Barnyardgrass plant response rating,[10]; [21],50
same,"Plant response rating, Foxtail, Giant",[11]; [14],15
same,"Plant response rating, Foxtail, Giant",[11]; [15],70
same,"Plant response rating, Foxtail, Giant",[11]; [16],75
same,"Plant response rating, Foxtail, Giant",[11]; [17],60
same,"Plant response rating, Foxtail, Giant",[11]; [18],80
same,"Plant response rating, Foxtail, Giant",[11]; [19],85
same,"Foxtail, Giant plant response rating",[11]; [20],98
same,"Plant response rating, Ryegrass, Italian",[12]; [14],40
same,"Plant response rating, Ryegrass, Italian",[12]; [15],60
same,"Plant response rating, Ryegrass, Italian",[12]; [16],90
same,"Plant response rating, Ryegrass, Italian",[12]; [17],15
same,"Plant response rating, Ryegrass, Italian",[12]; [18],35
same,"Plant response rating, Ryegrass, Italian",[12]; [19],35
same,"Ryegrass, Italian plant response rating",[12]; [20],30
same,"Plant response rating, Soybean",soybean (Glycine max); [14],0
same,"Plant response rating, Soybean",soybean (Glycine max); [15],20
same,"Plant response rating, Soybean",soybean (Glycine max); [16],10
same,"Plant response rating, Soybean",soybean (Glycine max); [17],75
same,"Plant response rating, Soybean",soybean (Glycine max); [18],0
same,"Plant response rating, Soybean",soybean (Glycine max); [19],0
same,Soybean plant response rating,soybean (Glycine max); [20],15
same,"Plant response rating, Crabgrass, Large",[13]; [14],15
same,"Plant response rating, Crabgrass, Large",[13]; [15],35
same,"Plant response rating, Crabgrass, Large",[13]; [16],65
same,"Plant response rating, Crabgrass, Large",[13]; [17],30
same,"Plant response rating, Crabgrass, Large",[13]; [18],30
same,"Plant response rating, Crabgrass, Large",[13]; [19],75
same,"Crabgrass, Large plant response rating",[13]; [20],85
same,"Crabgrass, Large plant response rating",[13]; [21],20

# Reference: US10597388B2, “Pyridazinone herbicides” (FMC CORPORATION, priority 2014, dated 2020)
